From US11013696B2, “Lipids and lipid compositions for the delivery of active agents” (Novartis AG, priority 2013, dated 2021)

Experiments:
[1] = Entrapment and RNA concentration of RSV-F replicon liposomes (Quant-iT RiboGreen); type: physicochemical
Method: RNA was encapsulated in liposomes made essentially by the method of Geall et al. (2012) PNAS vol. 109 (36): 14604-14609, Jeffs et al. (2005) Pharmaceutical Research 22 (3):362-372 and Maurer et al. (2001) Biophysical Journal, 80: 2310-2326 The liposomes were made of 10% DSPC (zwitterionic), 40% cationic lipid, 48% cholesterol and 2% PEG-conjugated DMG (2 kDa PEG). These proportions refer to the % moles in the total liposome.
Briefly, lipids were dissolved in ethanol (2 ml), a RNA replicon was dissolved in buffer (2 ml, 100 mM sodium citrate, pH 6) and these were mixed with 2 ml of buffer followed by 1 hour of equilibration. The mixture was then dialized overnight against 1×PBS. The resulting product contained liposomes, with ˜70-95% encapsulation efficiency. For in vitro and in vivo experiments formulations were diluted to the required RNA concentration with 1×PBS.
The percentage of encapsulated RNA and RNA concentration were determined by Quant-iT RiboGreen RNA reagent kit (Invitrogen), following manufacturer's instructions. The ribosomal RNA standard provided in the kit was used to generate a standard curve. Liposomes were diluted 10× or 100× in 1×TE buffer (from kit) before addition of the dye. Separately, liposomes were diluted 10× or 100× in 1×TE buffer containing 0.5% Triton X before addition of the dye (to disrupt the liposomes and thus to assay total RNA). Thereafter an equal amount of dye was added to each solution and then ˜180 μL of each solution after dye addition was loaded in duplicate into a 96 well tissue culture plate. The fluorescence (Ex 485 nm, Em 528 nm) was read on a microplate reader. All liposome formulations were dosed in vivo based on the encapsulated amount of RNA.
(§1) A self-replicating replicon encoding RSV F protein was administered to BALB/c mice, 8 animals per group, by bilateral intramuscular vaccinations (50 μL per leg) on days 0 and 21 with the replicon (0.1 and 1 ng) formulated as liposomes with the lipids described below. All liposomes tested were composed of 40% cationic lipid, 10% DSPC, 48% cholesterol and 2% PEG-DMG with similar amounts of RNA. The liposomes were all prepared using the same technique as described above.
(§2) % entrapment (% E), Concentration of RNA (Conc), particle size measured by DLS, and polydispersity reported by DLS of LNPs prepared with different cationic lipids

[2] = Percent encapsulation of mRNA in lipid nanoparticles (Quant-iT Ribogreen); type: physicochemical; settings: Table 2; leptin mRNA in LNP with the cationic lipid
Outline: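 LNPs made by T-junction mixing of ethanolic lipids (cationic lipid:DSPC:cholesterol:PEG lipid 40:10:38:2, N:P 4:1) with mRNA in citrate pH 5.8-6.0, then dialysed against PBS overnight at 4 °C. RiboGreen fluorescence (ex 480/em 520 nm) measured in TE ± 0.75% Triton X-100; encapsulation = (total − free)/total.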

RSV F protein = assay: RSV immunogenicity: IgG titers after two IM immunizations with vA375 RNA expressing RSV-F in LNPs; type: in vivo, BALB/c mice; settings: IM days 0 and 21, two weeks after two immunizations
[3] = Particle size and polydispersity by DLS of RSV-F replicon LNPs; type: physicochemical
Method: as §1, §2

[4] = siRNA encapsulation in lipid nanoparticles (SYBR Gold); type: physicochemical; settings: Table 2; FVII siRNA in LNP with the cationic lipid
Outline: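 SYBR Gold fluorescence (ex 485/em 530 nm) of LNPs made by impinging-jet mixing of ethanolic lipids (cationic, cholesterol, optional DSPC, PEG/stealth lipid) with siRNA in citrate pH 4-6, siRNA:lipid ~0.05 wt/wt. Samples with and without Triton X-100 gave free and total siRNA for encapsulation efficiency.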

[5] = RSV-F replicon LNP prepared for 1st IM
[6] = RSV-F replicon LNP prepared for 2nd IM

Row | Structure (SMILES) | % E (% entrapment) [1, 5] | % E (% entrapment) [1, 6] | % encapsulation mRNA Leptin [2] | Immunogenicity (2wp2, log10 IgG titers) (RSV F protein; 0.1 ng vA375 RNA) | Immunogenicity (2wp2, log10 IgG titers) (RSV F protein; 1 ng vA375 RNA) | PDI [3, 5] | Size [3, 5] | PDI [3, 6] | Size [3, 6] | % encapsulation siRNA FVII [4]
1 | CCCCCCCCCCCCC(CCOC(=O)CCCCC(OCC(CCC)CCC)OCC(CCC)CCC)OC(=O)OCCCN(C)C (stereo not shown) [Example 115, 3-(((3-(dimethylamino)propoxy)carbonyl)oxy)pentadecyl 6,6-bis((2-propylpentyl)oxy)hexanoate] | 95.76% | 95.78% | 97.8% | 1.91 log10 IgG titers | 3.31 log10 IgG titers | 0.075 | 141.3 nm | 0.065 | 130.9 nm | 
2 | CCCCC/C=C\C/C=C\CCCCCCCC(=O)OCC(COC(=O)CCCCCCC/C=C\C/C=C\CCCCC)COC(=O)CCC(CCCCCCCCCCCC)OC(=O)OCCCN(C)C (stereo not shown) [Example 105, (9Z,9′Z,12Z,12′Z)-2-(9-dodecyl-2-methyl-7,12-dioxo-6,8,13-trioxa-2-azatetradecan-14-yl)propane-1,3-diyl bis(octadeca-9,12-dienoate)] | 85.22% | 69.54% |  | 4.21 log10 IgG titers | 4.53 log10 IgG titers | 0.107 | 137.2 nm | 0.123 | 135.7 nm | 
3 | CCCCC/C=C\C/C=C\CCCCCCCC(=O)OCC(COC(=O)CCCCCCC/C=C\C/C=C\CCCCC)OC(=O)C(CCCCCCCCCCCC)OC(=O)OCCCN(C)C (stereo not shown) [Example 98, (9Z,9′Z,12Z,12′Z)-2-((2-(((3-(dimethylamino)propoxy)carbonyl)oxy)tetradecanoyl)oxy)propane-1,3-diyl bis(octadeca-9,12-dienoate)] | 85.91% | 76.36% | 73.4% | 4.28 log10 IgG titers | 4.64 log10 IgG titers | 0.07 | 139.4 nm | 0.065 | 130.9 nm | 
4 | CCCCC/C=C\C/C=C\CCCCCCCCC(CCCOC(=O)CCC(=O)OC(CCCCCCCC)CCCCCCCC)OC(=O)OCCCN(C)C (stereo not shown) [Example 58, (13Z,16Z)-4-(((3-(dimethylamino)propoxy)carbonyl)oxy)docosa-13,16-dien-1-yl heptadecan-9-yl succinate] | 87.48% | 87.03% | 90.2% | 4.19 log10 IgG titers | 4.26 log10 IgG titers | 0.111 | 139.4 nm | 0.075 | 137.1 nm | 
5 | CCCCCCCCCCCCC(CCOC(=O)CCCCCCC(COC(=O)CCCCCCC)COC(=O)CCCCCCC)OC(=O)OCCCN(C)C (stereo not shown) [Example 10, 2-(9-dodecyl-2-methyl-7,13-dioxo-6,8,12-trioxa-2-azanonadecan-19-yl)propane-1,3-diyl dioctanoate] |  |  | 88.4% |  |  |  |  |  |  | 89.9%
6 | CCCCCCCCCCCCC(CCCOC(=O)CCCCC(COC(=O)CCCCCCC)COC(=O)CCCCCCC)OC(=O)C1(C)CCN(C)CC1 (stereo not shown) [Example 131, 2-(5-((4-((1,4-dimethylpiperidine-4-carbonyl)oxy)hexadecyl)oxy)-5-oxopentyl)propane-1,3-diyl dioctanoate] | 85.31% | 80.31% | 96.4% | 4.43 log10 IgG titers | 5.22 log10 IgG titers | 0.119 | 138.3 nm | 0.07 | 143.5 nm | 
7 | CCCCCCCCCCCCC(CCOC(=O)CCC(OCC(CCC)CCC)OCC(CCC)CCC)OC(=O)OCCCN(C)CC (stereo not shown) [Example 14, 3-(((3-(ethyl(methyl)amino)propoxy)carbonyl)oxy)pentadecyl 4,4-bis((2-propylpentyl)oxy)butanoate] |  |  | 99.4% |  |  |  |  |  |  | 88.0%
8 | CCCCCCCCCCCCC(CCOC(=O)CCC(OCCCCCCCC)OCCCCCCCC)OC(=O)OCCCN(CC)CC (stereo not shown) [Example 11, 3-(((3-(diethylamino)propoxy)carbonyl)oxy)pentadecyl 4,4-bis(octyloxy)butanoate] |  |  | 98.2% |  |  |  |  |  |  | 89.7%
9 | CCCCCCCCCCCCC(CCOC(=O)CCCCCC(COC(=O)CCCCCCC)COC(=O)CCCCCCC)OC(=O)OCCCN(CC)CC (stereo not shown) [Example 6, 2-(10-dodecyl-3-ethyl-8,14-dioxo-7,9,13-trioxa-3-azanonadecan-19-yl)propane-1,3-diyl dioctanoate] |  |  | 24.0% |  |  |  |  |  |  | 91.7%
